According to patent publication US8460900B2, “Methods to degrade sludge from pulp and paper manufacturing” (Buckman Laboratories International, Inc., priority 2010, dated 2013):

Test system: CELLIC® CTec enzyme
Assay: Cellulase activity of enzyme-surfactant solutions, carboxymethyl cellulose as substrate
Assay type: biochemical
Settings: Table 3: 5 wt % surfactant + 10 wt % CELLIC CTec; for % Activity Increase: versus enzyme without surfactant; for Cellulase Activity (u/g): CMC substrate
Procedure: The experiments were set up for evaluating the effects of surfactants on enzymatic activity of CELLIC® CTec enzyme. The enzyme, surfactant, and water were mixed to form a solution containing 5 wt % surfactant and 10 wt % enzyme. For example, 1.0 g of CELLIC® CTec, 0.5 g of PLURONIC F108, and 8.5 g of deionized water were mixed to produce a solution containing 10 wt % enzyme and 5 wt % surfactant. The resulted enzyme-surfactant solutions were tested for cellulase activity. Carboxymethyl cellulose was used as the assay substrate. A control solution containing 10 wt % enzyme without surfactant was included for comparison.
Five PLURONIC surfactants with different HLB values are evaluated for their effects on the enzymatic activity of CELLIC® CTec in water solution. Each surfactant was mixed with the enzyme in water. The resulting solution was then assayed for cellulase activity using carboxymethyl cellulose (CMC) as the substrate. […] F108 enhanced the enzymatic activity by 22.3%.

% Activity Increase | Cellulase Activity (u/g) | Substance
6.9% | 351.6 u/g | Cocobis(2-hydroxyethyl)methyl ammonium chloride
7.3% | 353.1 u/g | Sorbitan mono-oleate ester [Sorbitan mono-oleate ester, non-ionic]
−2.3% | 321.5 u/g | Sorbitan mono-oleate [Sorbitan mono-oleate, non-ionic]
